Measured values reported in patent US8163513B2, “Method for determining the total clotting activity of a blood or plasma sample” (JenAffin GmbH, priority 2005, dated 2012).

Test system: thrombin
Experiment: THROGA (thrombin generation assay): maximal thrombin generation in citrate blood or plasma of treated patients
Format: in vivo, human
Procedure: For maximal generation of thrombin, a small amount of anti-coagulant blood or plasma is used. For this, citrate, but also every other anti-coagulant may be used. 0.1 ml citrate blood or citrate plasma each are put into a reference tube (NaCl) and an activator tube (tissue factor+mixture of ellagic acid and phospholipids) in which a defined amount of hirudin is present. After closing the reaction vessels, the two containers are mixed in a mini shaker at 550 rpm at room temperature for 25 minutes. The activation of coagulation is subsequently terminated with a stop solution containing EDTA and the remaining not-consumed free hirudin is determined with a precise detection method. For the exact measurement of the hirudin content in the reaction vessels, a commercial available chromogenic hirudin determination method via chromogenic substrate (ECA, Ecarin Chromogenic Assay, WO 0046602) is employed.
For one determination, 100 μl citrate blood or citrate plasma, respectively, are put into one activator tube and one reference tube each. In order to avoid evaporation, the tubes should be closed after dissolving (“Lösen”). Subsequently, the tubes are put into a shaker for 30-60 minutes. In order to terminate the reaction after shaking, 1000 μl stop reagent are added into each tube and carefully mixed with the pipette.
In both THROGA-samples (reference tube and activator tube) the anti-thrombin units (ATU) are now determined via ECA-H.
From the ATU determined in reference tube and activator tube, respectively, the thrombin units formed in the plasma or blood sample are calculated with the following formula: ETP=R−A • ETP maximal endogenic thrombin potential, thrombin units formed in 1 ml blood or plasma • R anti-thrombin units in the reference tube (ATU/ml blood or plasma) • A anti-thrombin units in the activator tube (ATU/ml blood or plasma) Generating a Reference Curve

[1] = patient two under falithrom, blood
[2] = patient two under falithrom, plasma

SMILES	% of the normal generable thrombin amount in the blood [1]	generated thrombin in the blood [1]	bleeding tendency (patient two under falithrom, judged from the THROGA-value in blood)	% of the normal plasma value [2]	generated thrombin in the plasma [2]	Difference control (A) minus activated sample (B), blood (patient two, thrombophilia upon gammopathy, thrombosis prophylaxis with falithrom, blood, use of the kit)	Difference control (A) minus activated sample (B), plasma (patient two, thrombosis prophylaxis with falithrom, plasma, use of the kit)	ATU/ml; TU/ml (generated thrombin, THROGA-value), blood (patient one, state after cerebral insult, after 8 weeks of clopidogrel, 1.5 tablets daily (112.5 mg), blood, norm 78±13 TU/ml, 99.5 prior to therapy)	THROGA-values in all further controls (patient one, under clopidogrel therapy)	ATU/ml; TU/ml (generated thrombin, THROGA-value), plasma (patient one, after 8 weeks of clopidogrel, 1.5 tablets daily (112.5 mg), plasma, N: 122±19 TU/ml, 118.5 prior to therapy)
CCC(c1ccccc1)c1c(O)c2ccccc2oc1=O (stereo not shown) [falithrom]	60%	46.3 TU/ml	no bleeding tendency can be observed	32%	39.3 TU/ml	46.3 ATU/ml	39.3 ATU/ml			
COC(=O)[C@H](c1ccccc1Cl)N1CCc2sccc2C1 [clopidogrel]								82.2 TU/ml	normal	116.9 TU/ml
